The results in this text go back to patent publication US20250262201A1, “COMPOUNDS AND METHODS USEFUL FOR STABILIZING PHENYLALANINE HYDROXYLASE MUTATIONS” (Agios Pharmaceuticals, Inc., priority 2022, published 2025).

Each structure is given as a SMILES string. Bounds are passed on as bounds.

The target of the first assay is T1, human PAH with the R408W mutation (Homo sapiens, UniProt P00439, R408W).
T1 construct: expressed in transfected cells
T1 sequence (P00439 1-452 R408W): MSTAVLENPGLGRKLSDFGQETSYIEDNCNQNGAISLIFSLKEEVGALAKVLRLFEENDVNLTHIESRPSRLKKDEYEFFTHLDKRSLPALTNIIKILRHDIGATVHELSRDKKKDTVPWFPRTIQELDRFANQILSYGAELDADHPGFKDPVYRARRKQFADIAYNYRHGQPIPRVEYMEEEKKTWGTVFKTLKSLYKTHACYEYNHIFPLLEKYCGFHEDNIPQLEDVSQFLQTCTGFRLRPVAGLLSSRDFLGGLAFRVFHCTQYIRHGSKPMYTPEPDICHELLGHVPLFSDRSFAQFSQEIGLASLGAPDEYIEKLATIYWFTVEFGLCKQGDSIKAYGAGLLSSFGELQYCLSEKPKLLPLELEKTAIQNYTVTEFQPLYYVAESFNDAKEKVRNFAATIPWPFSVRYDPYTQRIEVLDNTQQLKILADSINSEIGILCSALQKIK
In words: Cell Based Phenylalanine Flux Assay. The conditions noted are these: A375 R408W cells, 24 hrs with compound, then 20 μM sepiapterin and 800 μM 13C9,15N-Phenylalanine for 4 hours; 13C-Tyrosine by LC-MS; average where tested multiple times; read-out: AC50.
Broadly, the AC50 is the midpoint of the concentration-response curve, whichever way the signal moves. With `O=C(C1CN(c2ccccn2)C1)N1CCc2[nH]cnc2C1c1cc2ccccc2cn1` (single isomer, unassigned), the AC50 was 1000 to 5000 nM.
Still for that read-out and setting: the result for `CC(C)(O)c1ncc(C(=O)N2CCc3[nH]cnc3[C@H]2c2cn3ccccc3n2)o1` (single isomer, unassigned) reads greater than 5000 nM; that for `COCc1ncc(C(=O)N2CCc3[nH]cnc3[C@H]2c2cn3ccccc3n2)s1` (single isomer, unassigned), greater than 5000 nM.
As to `C[C@H]1CN(c2nnc(-c3ccccn3)o2)[C@@H](c2cc3ccccc3cn2)c2nc[nH]c21` (single isomer, unassigned), the AC50 is greater than 5000 nM.

Still in this assay, the particulars now being: A375 cells expressing human R408W PAH; 24 hrs compound incubation; 13C-Tyrosine by LC-MS; average where tested multiple times; read-out: AC50.
For `Cc1nc(C(C)(C)O)oc1C(=O)N1CCc2[nH]cnc2[C@@H]1c1ccc2ccccc2n1` (single isomer, unassigned) [Example 14], the half-maximal activity concentration (AC50) was greater than 5000 nM.
Still for that read-out and setting: then `O=C(c1nnc(-c2cnn(CC(F)(F)F)c2)o1)N1CCc2[nH]cnc2[C@H]1c1ccc2ccccc2n1` (single isomer, unassigned) [Example 67], with 500 to 1000 nM; and `O=C(c1nnc(-c2cnn(CC(F)(F)F)c2)o1)N1CCc2[nH]cnc2[C@@H]1c1ccc2ccccc2n1` (single isomer, unassigned) [Example 68], with greater than 5000 nM; and `CC(O)c1nc(Br)c(C(=O)N2CCc3[nH]cnc3[C@@H]2c2ccc3ccccc3n2)o1` (single isomer, unassigned) [Example 131], with 1000 to 5000 nM.
Still for that read-out and setting: then `CC(O)c1nc(Br)c(C(=O)N2CCc3[nH]cnc3[C@@H]2c2ccc3ccccc3n2)o1` (single isomer, unassigned) [Example 132], with 1000 to 5000 nM; and `CC(O)c1nc(Br)c(C(=O)N2CCc3[nH]cnc3[C@H]2c2ccc3ccccc3n2)o1` (single isomer, unassigned) [Example 133], with less than 500 nM.
Take `CC(O)c1nc(Br)c(C(=O)N2CCc3[nH]cnc3[C@H]2c2ccc3ccccc3n2)o1` (single isomer, unassigned) [Example 134]: the AC50 is less than 500 nM.
`CC(O)c1nc(Cl)c(C(=O)N2CCc3[nH]cnc3[C@@H]2c2ccc3ccccc3n2)o1` (single isomer, unassigned) [Example 135]: the AC50 is greater than 5000 nM.
Take `CC(O)c1nc(Cl)c(C(=O)N2CCc3[nH]cnc3[C@@H]2c2ccc3ccccc3n2)o1` (single isomer, unassigned) [Example 136]: the AC50 is 1000 to 5000 nM.
With `CC(O)c1nc(Cl)c(C(=O)N2CCc3[nH]cnc3[C@H]2c2ccc3ccccc3n2)o1` (single isomer, unassigned) [Example 137], the AC50 is less than 500 nM.
Same read-out and setting: the result for `CC(O)c1nc(Cl)c(C(=O)N2CCc3[nH]cnc3[C@H]2c2ccc3ccccc3n2)o1` (single isomer, unassigned) [Example 138] reads less than 500 nM; that for `CC(F)(F)c1ncc(C(=O)N2CCc3[nH]cnc3[C@@H]2c2cn3ccccc3n2)s1` (single isomer, unassigned) [Example 235], greater than 5000 nM.
Turning to `CC(F)(F)c1ncc(C(=O)N2CCc3[nH]cnc3[C@H]2c2cn3ccccc3n2)s1` (single isomer, unassigned) [Example 236], the concentration at half-maximal activity (AC50) was 1000 to 5000 nM.
Same read-out and setting: then `O=C(c1oc(-c2ccccn2)nc1C1CC1)N1CCCc2[nH]cnc2[C@H]1c1cc2ccccc2cn1` (single isomer, unassigned) [Example 379], with 1000 to 5000 nM; and `O=C(c1oc(-c2ccccn2)nc1C1CC1)N1CCCc2[nH]cnc2[C@@H]1c1cc2ccccc2cn1` (single isomer, unassigned) [Example 380], with greater than 5000 nM; and `C[C@H]1CN(C(=O)c2nnc(-c3ccccn3)o2)[C@H](c2cc3ccccc3cn2)c2nc[nH]c21` (single isomer, unassigned) [Example 385], with 500 to 1000 nM.
Still for that read-out and setting: then `C[C@H]1CN(C(=O)c2nnc(-c3ccccn3)o2)[C@@H](c2cc3ccccc3cn2)c2nc[nH]c21` (single isomer, unassigned) [Example 386], with greater than 5000 nM; and `C[C@@H]1CN(C(=O)c2nnc(-c3ccccn3)o2)[C@H](c2cc3ccccc3cn2)c2nc[nH]c21` (single isomer, unassigned) [Example 388], with 500 to 1000 nM.
In the case of `O=C(c1cnc(-c2ccccn2)s1)N1CCc2[nH]cnc2C1c1ccc2ccccc2n1` (stereo in doubt) [Example 1, (R)-(2-(pyridin-2-yl)thiazol-5-yl)(4-(quinolin-2-yl)-6,7-dihydro-1H-imidazo[4,5-c]pyridin-5(4H)-yl)methanone], the half-maximal activity concentration (AC50) was less than 500 nM.
In the case of `O=C(c1cnc(-c2ccccn2)s1)N1CCc2[nH]cnc2C1c1ccc2ccccc2n1` (stereo in doubt) [Example 2, (S)-(2-(pyridin-2-yl)thiazol-5-yl)(4-(quinolin-2-yl)-6,7-dihydro-1H-imidazo[4,5-c]pyridin-5(4H)-yl)methanone], the concentration at half-maximal activity (AC50) was 1000 to 5000 nM.
As for `CC(C)(C)c1ncc(C(=O)N2CCc3[nH]cnc3C2c2ccc3ccccc3n2)s1` (stereo in doubt) [Example 3, (R)-(2-(tert-butyl)thiazol-5-yl)(4-(quinolin-2-yl)-6,7-dihydro-1H-imidazo[4,5-c]pyridin-5(4H)-yl)methanone], the AC50 was less than 500 nM.
For `CC(C)(C)c1ncc(C(=O)N2CCc3[nH]cnc3C2c2ccc3ccccc3n2)s1` (stereo in doubt) [Example 4, (S)-(2-(tert-butyl)thiazol-5-yl)(4-(quinolin-2-yl)-6,7-dihydro-1H-imidazo[4,5-c]pyridin-5(4H)-yl)methanone], the AC50 was greater than 5000 nM.
Turning to `O=C(c1cncs1)N1CCc2[nH]cnc2C1c1ccc2ccccc2n1` (stereo in doubt) [Example 5, (R)-(4-(quinolin-2-yl)-6,7-dihydro-1H-imidazo[4,5-c]pyridin-5(4H)-yl)(thiazol-5-yl)methanone], the AC50 was 500 to 1000 nM.
In the case of `O=C(c1cncs1)N1CCc2[nH]cnc2C1c1ccc2ccccc2n1` (stereo in doubt) [Example 6, (S)-(4-(quinolin-2-yl)-6,7-dihydro-1H-imidazo[4,5-c]pyridin-5(4H)-yl)(thiazol-5-yl)methanone], the AC50 was greater than 5000 nM.
Still for that read-out and setting: the result for `Cc1nc(C(C)(C)C)oc1C(=O)N1CCc2[nH]cnc2C1c1ccc2ccccc2n1` (stereo in doubt) [Example 7, (R)-(2-(tert-butyl)-4-methyloxazol-5-yl)(4-(quinolin-2-yl)-6,7-dihydro-1H-imidazo[4,5-c]pyridin-5(4H)-yl)methanone] reads 500 to 1000 nM; that for `O=C(c1nnc(C2CC2)o1)N1CCc2[nH]cnc2C1c1ccc2ccccc2n1` (stereo in doubt) [Example 9, (R)-(5-cyclopropyl-1,3,4-oxadiazol-2-yl)(4-(quinolin-2-yl)-6,7-dihydro-1H-imidazo[4,5-c]pyridin-5(4H)-yl)methanone], 500 to 1000 nM.
In the case of `O=C(c1nnc(C2CC2)o1)N1CCc2[nH]cnc2C1c1ccc2ccccc2n1` (stereo in doubt) [Example 10, (S)-(5-cyclopropyl-1,3,4-oxadiazol-2-yl)(4-(quinolin-2-yl)-6,7-dihydro-1H-imidazo[4,5-c]pyridin-5(4H)-yl)methanone], the concentration at half-maximal activity (AC50) fell in the range of 1000 to 5000 nM.
Still for that read-out and setting: the result for `O=C(c1nnc(-c2ccc(F)cc2)o1)N1CCc2[nH]cnc2C1c1ccc2ccccc2n1` (stereo in doubt) [Example 11, (R)-(5-(4-fluorophenyl)-1,3,4-oxadiazol-2-yl)(4-(quinolin-2-yl)-6,7-dihydro-1H-imidazo[4,5-c]pyridin-5(4H)-yl)methanone] reads less than 500 nM; that for `CC(C)(F)c1ncc(C(=O)N2CCc3[nH]cnc3C2c2ccc3ccccc3n2)s1` (stereo in doubt) [Example 15, (R)-(2-(2-fluoropropan-2-yl)thiazol-5-yl)(4-(quinolin-2-yl)-6,7-dihydro-1H-imidazo[4,5-c]pyridin-5(4H)-yl)methanone], 500 to 1000 nM.
Take `CC(C)(F)c1ncc(C(=O)N2CCc3[nH]cnc3C2c2ccc3ccccc3n2)s1` (stereo in doubt) [Example 16, (S)-(2-(2-fluoropropan-2-yl)thiazol-5-yl)(4-(quinolin-2-yl)-6,7-dihydro-1H-imidazo[4,5-c]pyridin-5(4H)-yl)methanone]: the AC50 is greater than 5000 nM.
On the same count and under the same terms, the result for `CC(C)(F)c1ncc(C(=O)N2CCc3[nH]cnc3C2c2ccc3ccccc3n2)o1` (stereo in doubt) [Example 17, (R)-(2-(2-fluoropropan-2-yl)oxazol-5-yl)(4-(quinolin-2-yl)-6,7-dihydro-1H-imidazo[4,5-c]pyridin-5(4H)-yl)methanone] reads less than 500 nM.
On to `Fc1ccc(-c2nnc(N3CCc4[nH]cnc4C3c3ccc4ccccc4n3)o2)cc1` (stereo in doubt) [Example 19, (S)-2-(4-fluorophenyl)-5-(4-(quinolin-2-yl)-6,7-dihydro-1H-imidazo[4,5-c]pyridin-5(4H)-yl)-1,3,4-oxadiazole], for which the AC50 was greater than 5000 nM.
Consider `Fc1ccc(-c2nnc(N3CCc4[nH]cnc4C3c3ccc4ccccc4n3)o2)cc1` (stereo in doubt) [Example 20, (R)-2-(4-fluorophenyl)-5-(4-(quinolin-2-yl)-6,7-dihydro-1H-imidazo[4,5-c]pyridin-5(4H)-yl)-1,3,4-oxadiazole], for which the AC50 was in the range of 500 to 1000 nM.
For the compound `Cc1nc(C(C)(C)F)oc1C(=O)N1CCc2[nH]cnc2C1c1ccc2ccccc2n1` (stereo in doubt) [Example 21, (S)-(2-(2-fluoropropan-2-yl)-4-methyloxazol-5-yl)(4-(quinolin-2-yl)-6,7-dihydro-1H-imidazo[4,5-c]pyridin-5(4H)-yl)methanone], the AC50 is greater than 5000 nM.
